Source: PubChem BioAssay (NCI)
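Step 1: Grow cells in 96-well plates. Step 2: Expose to compound for 48 hours at 5 concentrations. Step 3: Interpolate endpoints linearly; if unreached, use highest concentration. TGI is the concentration that stops growth completely.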

Tests used:
Assay in all cases: DTP human tumour cell line panel, 48 h
[1] = tested on: MOLT-4 leukemia
[2] = tested on: ACHN renal
[3] = tested on: PC-3 prostate
[4] = tested on: MDA-MB-231 breast
[5] = tested on: SK-MEL-5 melanoma
[6] = tested on: HOP-92 NSCLC
[7] = tested on: RPMI-8226 leukemia
[8] = tested on: COLO 205 colon
[9] = tested on: NCI-H522 lung
[10] = tested on: NCI-H226 lung
[11] = tested on: SK-OV-3 ovarian
[12] = tested on: HT29 colon
[13] = tested on: SF-268 CNS
[14] = tested on: HCT-15 colon
[15] = tested on: UACC-257 melanoma
[16] = tested on: SN12C renal
[17] = tested on: K-562 leukemia
[18] = tested on: UO-31 renal
[19] = tested on: A498 renal
[20] = tested on: LOX IMVI melanoma

Row | SMILES | TGI [1] [µM] | TGI [2] [µM] | TGI [3] [µM] | TGI [4] [µM] | TGI [5] [µM] | TGI [6] [µM] | TGI [7] [µM] | TGI [8] [µM] | TGI [9] [µM] | TGI [10] [µM] | TGI [11] [µM] | TGI [12] [µM] | TGI [13] [µM] | TGI [14] [µM] | TGI [15] [µM] | TGI [16] [µM] | TGI [17] [µM] | TGI [18] [µM] | TGI [19] [µM] | TGI [20] [µM]
1 | CCn1c(-c2cc(OC)cc(OC)c2)nc2c1C(=O)c1ccccc1C2=O | > 100 | > 100 | > 100 | > 100 | > 100 | > 100 | > 100 | > 100 | 87.9 | > 100 | > 100 | > 100 | > 100 | > 100 | > 100 | > 100 | > 100 | – | – | –
2 | COc1nc(C(=O)NNC(=O)c2nc(OC)c3ccccc3c2-c2ccccc2)c(-c2ccccc2)c2ccccc12 | > 100 | > 100 | > 100 | > 100 | > 100 | – | > 100 | > 100 | > 100 | > 100 | > 100 | > 100 | > 100 | > 100 | > 100 | > 100 | > 100 | > 100 | > 100 | –
3 | COc1ccc(N=C2SC(=N/N=c3\sc4ccccc4n3C)SC2=Nc2ccc(OC)cc2)cc1 | > 100 | > 100 | > 100 | 66 | > 100 | > 100 | > 100 | > 100 | > 100 | > 100 | > 100 | > 100 | > 100 | > 100 | > 100 | > 100 | > 100 | > 100 | – | –
4 | COc1cc(-c2cc(=O)c3c(OC)c(OC)c(OC)c(OC)c3o2)c(OC)c(OC)c1OC | > 100 | > 100 | 50.1 | > 100 | > 100 | 82.5 | > 100 | > 100 | 94.6 | > 100 | > 100 | > 100 | > 100 | > 100 | > 100 | > 100 | > 100 | 88.6 | – | > 100
5 | CC(=O)Nc1ccc(C(=O)NN2C(=O)C(Cl)C2c2ccccc2)cc1 (stereo not drawn) | > 100 | > 100 | – | – | > 100 | > 100 | – | > 100 | > 100 | > 100 | > 100 | > 100 | > 100 | – | > 100 | > 100 | > 100 | > 100 | > 100 | > 100
6 | Cc1cc(C)c(S(=O)(=O)N2CCCN(S(=O)(=O)c3c(C)cc(C)cc3C)OCCCON(S(=O)(=O)c3c(C)cc(C)cc3C)CCCN(S(=O)(=O)c3c(C)cc(C)cc3C)OCCCO2)c(C)c1 | > 100 | > 100 | > 100 | > 100 | > 100 | > 100 | > 100 | > 100 | > 100 | > 100 | > 100 | > 100 | > 100 | > 100 | > 100 | – | > 100 | > 100 | – | > 100
7 | COc1cc(Nc2cnc3cc(F)c(F)cc3n2)cc(OC)c1OC | > 100 | > 100 | > 100 | – | > 100 | > 100 | – | > 100 | > 100 | > 100 | > 100 | > 100 | > 100 | > 100 | > 100 | > 100 | – | > 100 | > 100 | > 100
8 | CC1=C(C#N)C(C#N)(C#N)C(NN(C)C)C1 (stereo not drawn) | 79.5 | 34.6 | 46.6 | 28.4 | 17.5 | 30.8 | 35.9 | 16.1 | 24.8 | – | > 100 | 38.3 | 78.7 | 21.3 | 26.4 | 27.3 | 60.8 | 29.3 | 43 | 29.7
9 | Cc1cc(N(CCC#N)CCC#N)ccc1/C(N=Nc1ccc([N+](=O)[O-])cc1)=N\NC(=O)c1cc(Cl)ccc1C(=O)c1ccccc1 | 38.8 | > 100 | 83.3 | 91 | 27.3 | – | 38.4 | 40.6 | 6.17 | 34.1 | > 100 | 27.4 | 42.3 | 37.2 | > 100 | > 100 | > 100 | 60.5 | – | –
10 | C=CCNC1=C2C[C@@H](C)C[C@@H](OC)[C@H](OC(=O)CCCCN)[C@H](C)/C=C(\C)[C@@H](OC(N)=O)[C@H](OC)/C=C\C=C(/C)C(=O)NC(=CC1=O)C2=O | 52.9 | 34 | – | 27.7 | 25.5 | 35.7 | 35.1 | 16.6 | 28.8 | – | 19.9 | 14.8 | 32.8 | 34.1 | 18.9 | 27.1 | > 100 | 34.2 | 25.9 | 27.5
11 | CC1CC(N)=Nc2ccccc2N1 (stereo not drawn) | > 100 | > 100 | > 100 | > 100 | > 100 | – | > 100 | > 100 | > 100 | > 100 | > 100 | > 100 | > 100 | > 100 | > 100 | > 100 | > 100 | > 100 | – | > 100
12 | COc1cc(C[S+]2CCCC2)c(SC)cc1C[S+]1CCCC1 | > 100 | > 100 | – | – | > 100 | > 100 | > 100 | > 100 | > 100 | > 100 | > 100 | > 100 | > 100 | > 100 | > 100 | > 100 | > 100 | > 100 | > 100 | > 100
